Source: patent US11407725B2 (The Board of Trustees of the University of Illinois, priority 2018, dated 2022)

Experiments:
A549 cells = assay: Confocal imaging of A549 cells with red-AlDeSense; format: cell-based; conditions: 1 μM dye
Method: Nunc™ Lab-Tek™ 8-well Chamber Coverglass (Thermo Fisher) were coated with poly-L-lysine (Trevigen). For cells that were also stained with an antibody, 2,000,000 cells were transferred to an Eppendorf tube. The cells were resuspended in 200 μL of antibody buffer (5% BSA and 1 mg/mL NaN3 in PBS) and treated with 2 μL FITC-labeled anti-CD44 antibody (10 mg/mL, Sino Biological) and left on ice for 20 minutes. In all cases, cells were added at 150,000 cells/well to the coated slides 1 hour prior to imaging. […] Cells were treated with 100 uL red-AlDeSense or Ctrl-red-AlDeSense solution (4 μM dye in imaging buffer; dyes were normalized by fluorescence spectroscopy) and 0.8 μL Hoescht 33342 (5 mg/mL in PBS) for 10 minutes. […] Hoescht 33342 was excited with a 405 nm laser and detected with a 415-502 filter set. FITC was excited with a 488 nm laser and detected with a 502-561 filter set. […] was excited with a 594 nm laser and detected with a 600-735 filter set. […] Images were analyzed using ZEN 3.0 (blue edition) software. Mean fluorescence for the FITC-labeled anti-CD44 antibody was multiplied by the cell diameter to account for its 1-dimensional cell membrane staining, as opposed to 2-dimensional intracellular staining of (Ctrl-)red-AlDeSense.

[1] = system: ALDH1A2, ALDH2, ALDH3A1, ALDH4A1, and ALDH5A1; assay: ALDH isoform selectivity of red-AlDeSense: other isoforms; format: biochemical, human; conditions: 2 μM dye
Method: Each ALDH isoform was added to a 50 mM triethanolamine solution (pH 7.4) containing 2.0 mM NAD^+ and 100 μM substrate at room temperature. Benzaldehyde was the substrate for ALDH3A1. Propanal was the substrate for all other isoforms. ALDH isoform activity was determined by monitoring the rate of NADH production through the increase in absorbance at 340 nm (ε=6220 M^−1cm^−1). For these assays, 1 unit is defined as the amount of enzyme that catalyzes the conversion of […] per minute. For every combination of dye and enzyme, 2 μM dye was preincubated with 2.0 mM NAD^+ in 50 mM triethanolamine solution (pH 7.4). The reaction was initiated by addition of 1 unit of ALDH. Dyes were excited at 590 nm, and fluorescence was measured continuously at 610 nm.

K562 cells = assay: Flow cytometry of K562 cells stained with AlDeSense; format: cell-based, human
Method: K562 cells were resuspended in PBS to a final concentration of 100,000 cells/mL. The suspension was divided into 0.5 mL aliquots and the cells were collected by centrifugation at 1000 rpm for 5 min at 4° C. Each sample was then resuspended in premixed AlDeSense AM or Ctrl-AlDeSense AM solutions (1.5 μM, PBS). For each dye, triplicate samples were prepared. Cells were incubated with dye for 30 minutes at room temperature with rocking to prevent cell clumping and ensure even dye distribution. At the end of the incubation period, cells were again collected by centrifugation at 1000 rpm for 5 min at 4° C. The dye solution was removed by aspiration, and each sample of cells were resuspended in 0.5 mL of PBS. The samples were immediately placed on ice until analysis. The samples were analyzed by a BD LSR II Flow Cytometry Analyzer using a 488 nm laser and a FITC filter. Data analyzed on FCS Express 6.04.
The day before imaging, Nunc™ Lab-Tek™ Chamber Slide™ systems (Thermo Fisher) were coated with poly-L-lysine (Trevigen) according to manufacturer's instructions. Cells were added to the chamber slides at a concentration of 400,000 cells/mL, yielding 90% confluent cells after 24 h. […] Images were analyzed using ImageJ software (Version 1.5 in).

[2] = pKa determination (pH profile of fluorescence); conditions: 40 mM Britton-Robinson buffer
Method: The fluorescence of 1 μM of each compound was measured in 40 mM Britton-Robinson buffer at pH 2-9 in 0.5 pH intervals. Each measurement was performed in triplicate. […] Error bars are ±standard deviation (SD).

Structure (SMILES) | A549 cells with high ALDH1A1 activity by confocal microscopy (A549 cells) [%] | cross-reactivity with ALDH1A2, ALDH2, ALDH3A1, ALDH4A1, ALDH5A1 [1] | brightness of stained K562 cells versus AlDeSense with inhibitor or Ctrl-AlDeSense (K562 cells) | pKa [2]
Cc1cc(C=O)c(F)c(F)c1C1=C2C=CC(=O)C=C2[Si](C)(C)c2cc(O)ccc21 | 77.6 | no cross-reactivity |  | 
Cc1cc(C=O)ccc1-c1c2cc(F)c(=O)cc-2oc2cc(O)c(F)cc12 [AlDeSense] |  |  | significantly brighter | 4.81
